Here are results for 19 molecules from ChEMBL document CHEMBL1201862, “PubChem BioAssay data set” (2004).

Active and inactive are the calls of the source.

The target in experiment [1] is T1, Short transient receptor potential channel 4 (Mus musculus, UniProt Q9QUQ5).
T1 sequence (Q9QUQ5 whole entry): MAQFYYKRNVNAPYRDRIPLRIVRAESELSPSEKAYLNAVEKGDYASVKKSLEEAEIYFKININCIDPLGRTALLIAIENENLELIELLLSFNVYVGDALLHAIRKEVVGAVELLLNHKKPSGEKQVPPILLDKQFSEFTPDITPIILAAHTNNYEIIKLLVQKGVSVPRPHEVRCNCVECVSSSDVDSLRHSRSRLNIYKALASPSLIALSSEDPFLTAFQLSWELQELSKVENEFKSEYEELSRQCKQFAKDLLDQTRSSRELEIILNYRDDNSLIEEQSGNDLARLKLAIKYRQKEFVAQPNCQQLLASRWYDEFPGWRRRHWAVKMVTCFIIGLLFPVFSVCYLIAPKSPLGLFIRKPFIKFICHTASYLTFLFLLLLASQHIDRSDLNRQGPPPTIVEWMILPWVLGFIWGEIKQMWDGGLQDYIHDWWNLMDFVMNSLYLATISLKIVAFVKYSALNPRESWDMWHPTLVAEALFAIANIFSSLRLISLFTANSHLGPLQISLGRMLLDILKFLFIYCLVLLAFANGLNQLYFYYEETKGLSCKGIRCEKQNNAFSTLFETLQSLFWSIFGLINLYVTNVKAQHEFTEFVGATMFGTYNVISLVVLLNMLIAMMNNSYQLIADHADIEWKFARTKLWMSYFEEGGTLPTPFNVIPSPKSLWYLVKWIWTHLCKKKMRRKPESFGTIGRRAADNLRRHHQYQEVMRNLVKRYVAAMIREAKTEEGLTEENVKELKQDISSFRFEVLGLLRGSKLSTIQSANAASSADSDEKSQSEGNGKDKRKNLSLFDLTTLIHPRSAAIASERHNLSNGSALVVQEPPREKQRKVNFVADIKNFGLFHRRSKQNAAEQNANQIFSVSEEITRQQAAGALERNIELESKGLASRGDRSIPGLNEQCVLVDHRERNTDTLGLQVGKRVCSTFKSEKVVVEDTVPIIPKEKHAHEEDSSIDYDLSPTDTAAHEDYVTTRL
Nature of the experiment: mouse TRPC4 channel activators, dose response, cell-based, HEK293 TRPC4/mu-opioid, Fluo-4 calcium (AID 434937). The class given is functional.

Experiment [2] can be described thus: ZM109 Env clade C HIV-1 fusion inhibitors, dose response, HeLa effector, CEM target cells, luciferase, cherry-pick (AID 652058). In kind it is functional, cell-based.
Experiment [3] can be described thus: off-target signal loss in HeLa-CEM21 co-culture – HeLa F-luc CTL cells, cherry-picked, counter-screen for HIV-1 Env fusion inhibitor project, dose response (AID 652040).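 Also: potency for signal decrease marking cytotoxic or nonspecific inhibition.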 In kind it is functional, cell-based.
Experiment [4] can be described thus: inhibitors of HIV Env-driven cell fusion, dose response, cherry-pick (AID 652057). The class given is functional, cell-based.
Experiment [5] can be described thus: THP-1 cell cytotoxicity, dose response, cytotoxicity control for non-replicating M. tuberculosis project (AID 489025). The class given is functional.
The nature of experiment [6]: Vero E6 cell cytotoxicity, dose response, cytotoxicity control for non-replicating M. tuberculosis project, secondary assay (AID 492998). The class given is functional, VeroE6. Particulars: Vero C1008.
For experiment [7], the target named is Voltage-dependent T-type calcium channel subunit alpha-1H (Homo sapiens, UniProt O95180). In kind it is functional.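 Also: channel activity triggered by adding a high calcium stimulation buffer.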
Chain of Voltage-dependent T-type calcium channel subunit alpha-1H (O95180 whole entry, the tested form may be a part): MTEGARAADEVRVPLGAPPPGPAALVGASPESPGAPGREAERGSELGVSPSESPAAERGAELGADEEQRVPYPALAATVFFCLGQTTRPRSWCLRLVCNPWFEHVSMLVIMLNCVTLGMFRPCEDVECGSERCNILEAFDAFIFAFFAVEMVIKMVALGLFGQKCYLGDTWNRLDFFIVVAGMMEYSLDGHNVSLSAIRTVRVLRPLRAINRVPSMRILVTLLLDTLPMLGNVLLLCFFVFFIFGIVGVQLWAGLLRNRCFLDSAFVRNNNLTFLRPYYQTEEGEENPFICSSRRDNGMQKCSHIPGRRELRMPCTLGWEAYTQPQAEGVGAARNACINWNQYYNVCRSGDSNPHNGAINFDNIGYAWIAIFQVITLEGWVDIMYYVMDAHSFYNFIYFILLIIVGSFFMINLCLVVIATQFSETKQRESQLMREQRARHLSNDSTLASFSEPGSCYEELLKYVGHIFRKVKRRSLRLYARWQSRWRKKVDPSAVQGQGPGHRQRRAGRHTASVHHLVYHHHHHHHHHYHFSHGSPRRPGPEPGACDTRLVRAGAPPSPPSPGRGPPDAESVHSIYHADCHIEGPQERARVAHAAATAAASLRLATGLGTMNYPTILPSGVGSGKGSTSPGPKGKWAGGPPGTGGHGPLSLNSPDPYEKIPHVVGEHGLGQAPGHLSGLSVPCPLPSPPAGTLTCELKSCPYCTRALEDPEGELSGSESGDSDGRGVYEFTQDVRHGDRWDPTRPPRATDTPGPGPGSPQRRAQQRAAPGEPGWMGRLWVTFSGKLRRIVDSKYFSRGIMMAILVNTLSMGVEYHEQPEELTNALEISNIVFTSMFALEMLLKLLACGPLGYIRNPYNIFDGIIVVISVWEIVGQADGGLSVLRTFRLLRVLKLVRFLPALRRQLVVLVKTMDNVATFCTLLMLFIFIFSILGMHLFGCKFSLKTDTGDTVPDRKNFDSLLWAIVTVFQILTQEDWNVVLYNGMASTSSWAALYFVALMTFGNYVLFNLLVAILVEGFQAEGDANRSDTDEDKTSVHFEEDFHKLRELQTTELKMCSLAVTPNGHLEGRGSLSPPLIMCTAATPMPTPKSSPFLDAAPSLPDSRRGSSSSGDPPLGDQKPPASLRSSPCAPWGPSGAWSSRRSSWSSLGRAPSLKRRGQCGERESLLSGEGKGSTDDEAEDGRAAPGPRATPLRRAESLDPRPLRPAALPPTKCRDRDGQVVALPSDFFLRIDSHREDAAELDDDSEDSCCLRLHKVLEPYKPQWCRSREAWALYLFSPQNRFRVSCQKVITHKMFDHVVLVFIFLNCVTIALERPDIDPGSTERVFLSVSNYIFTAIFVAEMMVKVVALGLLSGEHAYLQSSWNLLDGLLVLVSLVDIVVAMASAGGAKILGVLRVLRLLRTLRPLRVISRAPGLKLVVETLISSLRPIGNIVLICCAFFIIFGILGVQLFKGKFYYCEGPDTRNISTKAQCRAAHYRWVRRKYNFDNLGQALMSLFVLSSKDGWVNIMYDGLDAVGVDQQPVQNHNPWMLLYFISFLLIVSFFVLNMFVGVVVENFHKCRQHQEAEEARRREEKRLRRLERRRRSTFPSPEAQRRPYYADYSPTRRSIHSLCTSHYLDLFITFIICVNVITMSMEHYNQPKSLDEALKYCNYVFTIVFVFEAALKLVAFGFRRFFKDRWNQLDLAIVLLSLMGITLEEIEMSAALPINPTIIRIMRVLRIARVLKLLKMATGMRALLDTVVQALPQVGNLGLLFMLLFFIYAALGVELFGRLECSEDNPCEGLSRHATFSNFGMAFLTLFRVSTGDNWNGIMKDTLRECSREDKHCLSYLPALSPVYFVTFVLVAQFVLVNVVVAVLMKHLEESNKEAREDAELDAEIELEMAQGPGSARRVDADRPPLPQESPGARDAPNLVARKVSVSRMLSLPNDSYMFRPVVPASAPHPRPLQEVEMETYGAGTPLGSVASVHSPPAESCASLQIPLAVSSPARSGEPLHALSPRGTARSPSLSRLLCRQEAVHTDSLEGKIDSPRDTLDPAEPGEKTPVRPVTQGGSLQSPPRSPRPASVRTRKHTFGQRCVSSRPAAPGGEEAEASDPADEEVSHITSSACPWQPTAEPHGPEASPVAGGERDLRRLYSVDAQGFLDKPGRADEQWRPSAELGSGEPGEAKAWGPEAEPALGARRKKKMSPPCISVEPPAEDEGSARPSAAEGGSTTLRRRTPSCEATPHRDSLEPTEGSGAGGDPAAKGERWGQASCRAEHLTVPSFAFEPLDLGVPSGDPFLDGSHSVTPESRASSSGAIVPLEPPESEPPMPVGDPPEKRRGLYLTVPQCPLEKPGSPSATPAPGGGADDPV
The nature of experiment [8]: inhibitors of clade B AD8 Env fusion, dose response, cell-based, cherry-pick (AID 652062).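 Also: luciferase signal from cell-cell fusion driven by HIV-1 clade B AD8 Env; potency is for inhibitors of fusion seen as a drop in luminescence.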 In kind it is functional.
For the next experiment, the target named is T2, Aminopeptidase N (Plasmodium falciparum FcB1/Columbia, UniProt O96935).
T2 sequence (O96935 whole entry): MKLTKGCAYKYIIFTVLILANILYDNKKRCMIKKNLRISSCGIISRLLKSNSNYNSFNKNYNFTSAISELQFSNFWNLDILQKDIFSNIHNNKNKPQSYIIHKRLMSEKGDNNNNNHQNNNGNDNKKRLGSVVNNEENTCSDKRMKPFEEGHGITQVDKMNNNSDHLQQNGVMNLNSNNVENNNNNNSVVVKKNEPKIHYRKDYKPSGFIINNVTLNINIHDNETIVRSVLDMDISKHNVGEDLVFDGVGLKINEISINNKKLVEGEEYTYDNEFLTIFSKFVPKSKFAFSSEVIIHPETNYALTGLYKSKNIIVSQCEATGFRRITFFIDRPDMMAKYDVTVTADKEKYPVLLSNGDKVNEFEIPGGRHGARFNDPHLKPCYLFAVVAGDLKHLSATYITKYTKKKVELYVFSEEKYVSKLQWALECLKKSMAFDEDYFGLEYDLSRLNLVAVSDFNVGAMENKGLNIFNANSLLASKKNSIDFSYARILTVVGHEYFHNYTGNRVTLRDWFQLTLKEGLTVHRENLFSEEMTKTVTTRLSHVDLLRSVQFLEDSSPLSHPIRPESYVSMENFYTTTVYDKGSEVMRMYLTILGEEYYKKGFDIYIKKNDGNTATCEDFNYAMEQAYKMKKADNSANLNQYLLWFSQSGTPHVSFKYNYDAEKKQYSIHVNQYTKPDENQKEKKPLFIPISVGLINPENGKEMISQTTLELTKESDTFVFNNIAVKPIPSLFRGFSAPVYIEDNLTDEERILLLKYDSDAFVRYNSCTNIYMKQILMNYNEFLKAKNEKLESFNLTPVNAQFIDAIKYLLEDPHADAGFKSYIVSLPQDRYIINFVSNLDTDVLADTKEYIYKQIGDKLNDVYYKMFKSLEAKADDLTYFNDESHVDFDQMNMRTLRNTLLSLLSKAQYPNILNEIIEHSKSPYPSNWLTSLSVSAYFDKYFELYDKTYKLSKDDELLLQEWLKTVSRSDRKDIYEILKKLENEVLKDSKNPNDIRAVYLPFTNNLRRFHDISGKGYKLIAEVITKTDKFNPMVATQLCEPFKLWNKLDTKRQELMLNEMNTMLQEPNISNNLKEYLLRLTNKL
As to the kind of experiment: P. falciparum M1AAP inhibitors, biochemical, fluorogenic H-Leu-NHMec substrate, 1536-well (AID 1445). Also noted: species or system Plasmodium falciparum 3D7, 3D7.

The target in the next experiment is T3, Protein RecA (Mycobacterium tuberculosis, UniProt P9WHJ3).
T3 sequence (P9WHJ3 whole entry): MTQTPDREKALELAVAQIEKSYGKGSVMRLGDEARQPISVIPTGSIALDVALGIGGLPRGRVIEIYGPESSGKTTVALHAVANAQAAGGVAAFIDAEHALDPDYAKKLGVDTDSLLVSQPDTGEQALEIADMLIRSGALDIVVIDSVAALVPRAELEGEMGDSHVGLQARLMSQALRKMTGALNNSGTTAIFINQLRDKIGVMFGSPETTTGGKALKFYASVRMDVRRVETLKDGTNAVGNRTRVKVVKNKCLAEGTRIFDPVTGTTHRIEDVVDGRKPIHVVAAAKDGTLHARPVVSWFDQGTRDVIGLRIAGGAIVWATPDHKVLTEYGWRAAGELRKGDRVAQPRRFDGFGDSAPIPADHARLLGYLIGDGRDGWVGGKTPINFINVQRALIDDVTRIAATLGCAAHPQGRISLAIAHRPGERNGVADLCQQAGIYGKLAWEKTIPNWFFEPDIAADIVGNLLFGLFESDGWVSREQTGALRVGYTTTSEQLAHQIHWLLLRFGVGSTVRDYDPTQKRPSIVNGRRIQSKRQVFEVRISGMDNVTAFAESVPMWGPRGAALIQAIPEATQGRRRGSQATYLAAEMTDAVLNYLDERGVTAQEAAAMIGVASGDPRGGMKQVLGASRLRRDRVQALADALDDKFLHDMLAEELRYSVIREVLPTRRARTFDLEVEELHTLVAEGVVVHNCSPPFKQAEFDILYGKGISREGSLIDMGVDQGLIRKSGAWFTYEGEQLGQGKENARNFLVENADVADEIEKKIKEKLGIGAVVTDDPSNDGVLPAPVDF
As to the kind of experiment: Fluorescence Cell-Free Homogeneous Dose Retest to Identify Inhibitors of RecA-Intein Splicing Activity. [Related pubchem assays (depositor defined):AID2097, AID2223, AID489010, AID492950]. The class given is functional.

A short description of a further experiment: cells. The class given is functional.
A further experiment has as its target T4, Leucine aminopeptidase (Plasmodium falciparum 3D7, UniProt Q8IL11).
T4 sequence (Q8IL11 whole entry): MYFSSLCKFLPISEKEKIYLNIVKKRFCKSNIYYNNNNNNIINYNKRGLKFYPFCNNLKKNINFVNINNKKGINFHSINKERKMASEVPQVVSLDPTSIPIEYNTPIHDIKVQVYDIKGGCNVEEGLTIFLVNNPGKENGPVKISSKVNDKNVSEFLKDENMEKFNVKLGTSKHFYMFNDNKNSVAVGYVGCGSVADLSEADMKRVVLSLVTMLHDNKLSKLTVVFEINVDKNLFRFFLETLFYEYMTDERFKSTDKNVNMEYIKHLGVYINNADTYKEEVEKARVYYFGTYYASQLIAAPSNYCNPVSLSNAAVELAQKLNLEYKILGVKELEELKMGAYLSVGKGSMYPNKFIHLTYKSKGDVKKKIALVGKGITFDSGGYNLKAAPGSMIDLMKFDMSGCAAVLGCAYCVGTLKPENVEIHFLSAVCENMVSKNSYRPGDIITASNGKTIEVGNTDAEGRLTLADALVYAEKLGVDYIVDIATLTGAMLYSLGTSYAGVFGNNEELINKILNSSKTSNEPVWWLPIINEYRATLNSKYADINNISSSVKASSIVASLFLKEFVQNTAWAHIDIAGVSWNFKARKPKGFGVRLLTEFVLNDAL
Nature of the experiment: P. falciparum M17LAP inhibitors, primary screen, biochemical, fluorogenic H-Leu-NHMec substrate, 1536-well (AID 1619). In kind it is functional.

The next experiment has as its target Prothrombin (Homo sapiens, UniProt P00734). As to the kind of experiment: Thrombin 1536 HTS Dose Response Confirmation. [Related pubchem assays: 1046 (Thrombin 1536 HTS; hits were confirmed in this assay)]. In kind it is functional.
The target in experiment [9] is Luciferin 4-monooxygenase (Photinus pyralis, UniProt P08659). As to the kind of experiment: firefly luciferase enzyme inhibitors, dose response, biochemical, luminescence (AID 1891).
Chain of Luciferin 4-monooxygenase (P08659 whole entry): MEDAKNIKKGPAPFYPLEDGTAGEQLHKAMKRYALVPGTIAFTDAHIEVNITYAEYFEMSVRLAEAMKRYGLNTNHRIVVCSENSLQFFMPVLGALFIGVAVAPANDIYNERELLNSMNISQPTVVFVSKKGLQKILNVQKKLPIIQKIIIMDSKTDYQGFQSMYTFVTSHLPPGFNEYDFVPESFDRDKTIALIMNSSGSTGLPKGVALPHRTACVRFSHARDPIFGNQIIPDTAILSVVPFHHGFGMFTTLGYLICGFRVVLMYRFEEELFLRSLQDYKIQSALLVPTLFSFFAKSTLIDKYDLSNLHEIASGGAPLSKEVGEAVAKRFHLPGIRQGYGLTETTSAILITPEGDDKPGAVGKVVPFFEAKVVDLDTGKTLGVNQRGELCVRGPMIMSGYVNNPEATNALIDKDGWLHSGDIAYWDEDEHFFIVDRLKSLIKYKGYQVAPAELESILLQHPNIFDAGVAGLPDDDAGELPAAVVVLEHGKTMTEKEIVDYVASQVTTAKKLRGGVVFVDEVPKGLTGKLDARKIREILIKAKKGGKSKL
Experiment [10] in a line: Luminescence Cell-Based Dose Confirmation HTS to Identify Inhibitors of Platelet Dense Granule Release. [Related pubchem assays: 1663 (Primary HTS), 1678 (Summary of Project)]. The class given is functional.

As usually defined, the EC50 is the concentration that produces a half-maximal response. As to `Cn1c(N2CCNCC2)nc2ccccc21`, in [1], the EC50 is 0.149 µM (active).
The term AC50 denotes the concentration at which the activity in the assay is half-maximal. Consider `COc1cc(OC)cc(C(=O)N[C@H](C(=O)NCCc2c[nH]c3ccccc23)C(C)C)c1`, for which the half-maximal activity concentration (AC50) was 16.8 µM (active) in experiment [2], 35.6 µM (active) in experiment [3] and 11 µM (active) in experiment [4].
For orientation: CC50 means the concentration giving 50% cytotoxicity. On to `COc1ccc(C)c2sc(NC(=O)CCS(=O)(=O)c3ccccc3)nc12`, for which the figures for the CC50 in experiment [5] and in experiment [6] were 23.1 µM (active) and > 20 µM (active), respectively.
As for `Cc1cccc(N2CCN(C(=O)C(Cc3ccccc3)n3cccc3)CC2)c1C` (centres undefined), in experiment [7], the 50% effective concentration (EC50) was 8.08 µM (active).
In the case of `CC(=O)Nc1sc2c(c1C(c1ccc(F)cc1)N1CCOCC1)CCCC2` (centres undefined), the AC50 in experiment [2] was 11.6 µM (active); in experiment [8] it was 32.8 µM (active); in experiment [3], > 70 µM (inactive); in experiment [4], 5.3 µM (active).
On to `COc1cc(NC(=O)C2COc3ccccc3O2)c(OC)cc1Cl` (centres undefined), for which the EC50 in experiment [7] is 8.09 µM (active).
One may read the IC50 as the concentration needed to halve the response being measured. As to `O=C(CN1C(=O)C2CCCCN2C(=O)c2ccccc21)N1CCCc2ccccc21` (centres undefined), the half-inhibitory concentration (IC50) at Aminopeptidase N was 103 µM (active).
`O=[N+]([O-])c1cncc([N+](=O)[O-])c1Nc1cccc(O)c1`: the CC50 in experiment [5] is 27 µM (active); in experiment [6], 15.7 µM (active). Besides, the EC50 at Protein RecA was 3.28 µM (active).
`O=C(CNS(=O)(=O)c1ccc2ccccc2c1)NCCc1ccccn1`: in experiment [1], the half-maximal effective concentration (EC50) was 9.44 µM (active).
On the same count and under the same terms, to `Cc1ccc(Cn2c(SCCN3CCCCC3)nc3c2c(=O)n(C)c(=O)n3C)cc1` belongs 11.9 µM (active).
As for `Cc1ccc(-c2ccc(/C=N/NC(=O)CN3CCOCC3)o2)cc1[N+](=O)[O-]`, the half-inhibitory concentration (IC50) in the experiment “cells” was 22.5 µM (active). For the same molecule, the CC50 in experiment [5] is > 40 µM (active).
As for `CCc1cc2cc3c(cc2nc1SCC(=O)Nc1cc(OC)c(OC)cc1C(=O)O)OCO3`, the half-maximal inhibitory concentration (IC50) at Leucine aminopeptidase is < 1 µM (active); on Aminopeptidase N, 76 µM (active).
For `COc1cc(OC)cc(C(=O)NC2CCCN(Cc3ccc(Cl)cc3)C2)c1` (centres undefined), the EC50 in experiment [1] was 5.96 µM (active).
In the case of `CCn1cc(C(=O)NCc2ccc3c(c2)OCO3)c(=O)c2cc(S(=O)(=O)N3CCOCC3)ccc21`, the half-inhibitory concentration (IC50) at Prothrombin is 0.158 µM (active).
`Cc1ccccc1NC(=O)CCl`: the IC50 against Prothrombin is > 50 µM (not active).
For `O=C1CC(C(=O)N(CC2CCCO2)C(C(=O)NC2CCCCC2)c2ccncc2)CS1` (centres undefined), the AC50 is 6.85 µM (active) in [2], 37.8 µM (active) in [8], 30.2 µM (active) in experiment [3] and 7.23 µM (active) in experiment [4].
`CCC(C)(C)NC(=O)CN(Cc1ccc2c(c1)OCO2)C(=O)CCC(=O)Nc1nccs1`: the half-maximal inhibitory concentration (IC50) at Aminopeptidase N was 87.6 µM (active).
For the molecule `Oc1ccc(-c2nc3ccccc3s2)cc1`, the EC50 in experiment [9] is 1.26 µM (active); in [10] it was 47.5 µM (active). Further, the IC50 against Prothrombin was > 50 µM (not active).
Consider `O=C(Nc1ccccc1C(F)(F)F)c1ccc(CN2CCC(Cc3ccccc3)CC2)cc1`, for which the EC50 in experiment [7] was 0.227 µM (active).
